Values quoted from earlier work, collected in patent US6696082B2, “Enhanced liposomal thioretinaco ozonide compositions and liposomal carrier” (priority 2002, dated 2004).

Tests used:
malignant tumors = conditions: in vivo; cited from earlier work
[1] = rats treated with parenteral homocysteine thiolactone; cited from earlier work
[2] = system: cultured malignant and normal cells; conditions: except at high concentrations; cited from earlier work
[3] = system: human pancreatic adenocarcinomas; conditions: intra-tumor administration, athymic mice; cited from earlier work

Compound	growth of malignant tumors in animals (malignant tumors)	antiatherogenic activity [1]	growth of cultured cells [2]	growth of human pancreatic adenocarcinomas [3]
NC(=O)/C=C\C(=O)NC1CCSC1=O (centres unmarked) [N-maleamide homocysteine thiolactone amide]	suppress the growth of malignant tumors in animals			
CC1=C(/C=C/C(C)=C/C=C/C(C)=C/C(=O)NC2CCSC2=O)C(C)(C)CCC1 (centres unmarked) [thioretinamide, N-homocysteine thiolactonyl retinamide]		have antiatherogenic activity	decrease growth without degeneration or detachment of the cells	
N-homocysteine thiolactonyl retinamido cobalamin [(NHTR)2Cbl]		have antiatherogenic activity	decrease growth without degeneration or detachment of the cells	decreased the growth
N-maleyl homocysteine thiolactone amide	suppress the growth of malignant tumors in animals			
rhodium trichloride oxalyl homocysteine thiolactone amide	suppress the growth of malignant tumors in animals			
